Data set [1] has as its target T1, Endoribonuclease toxin MazF (Escherichia coli K-12, UniProt P0AE70).
T1 sequence (P0AE70 whole entry): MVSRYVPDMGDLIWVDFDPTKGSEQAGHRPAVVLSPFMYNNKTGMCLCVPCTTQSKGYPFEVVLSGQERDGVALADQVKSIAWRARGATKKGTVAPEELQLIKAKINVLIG
The data set can be described thus: fluorescent RNA oligo signal without MazF, dose response, counter-screen for MazEF activator project, biochemical, fluorescence, single-stranded RNase substrate (AID 588502). Format: functional. In general terms: Counterscreens check selectivity or assay interference.

Data set [2] deals with T1, Endoribonuclease toxin MazF. Nature of the data set: MazF toxin RNase activators, dose response, biochemical, fluorescence, single-stranded RNA substrate, uHTS hits (AID 588481). Format: functional.
In data set [3] the test system is Escherichia coli. The data set can be described thus: microbe, parasite or virus in culture.
For a further data set, the target named is Cytochrome P450 2C9 (Homo sapiens, UniProt P11712).
Another data set concerns the target Cytochrome P450 2D6 (Homo sapiens, UniProt P10635).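 Note: CYP2D6 member of a cytochrome P450 panel assay.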
In a further data set the target is T2, Cytochrome P450 1A2 (Homo sapiens, UniProt P05177).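 Note: PubChem cytochrome P450 panel assay, CYP1A2 panel member.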
T2 sequence (P05177 whole entry): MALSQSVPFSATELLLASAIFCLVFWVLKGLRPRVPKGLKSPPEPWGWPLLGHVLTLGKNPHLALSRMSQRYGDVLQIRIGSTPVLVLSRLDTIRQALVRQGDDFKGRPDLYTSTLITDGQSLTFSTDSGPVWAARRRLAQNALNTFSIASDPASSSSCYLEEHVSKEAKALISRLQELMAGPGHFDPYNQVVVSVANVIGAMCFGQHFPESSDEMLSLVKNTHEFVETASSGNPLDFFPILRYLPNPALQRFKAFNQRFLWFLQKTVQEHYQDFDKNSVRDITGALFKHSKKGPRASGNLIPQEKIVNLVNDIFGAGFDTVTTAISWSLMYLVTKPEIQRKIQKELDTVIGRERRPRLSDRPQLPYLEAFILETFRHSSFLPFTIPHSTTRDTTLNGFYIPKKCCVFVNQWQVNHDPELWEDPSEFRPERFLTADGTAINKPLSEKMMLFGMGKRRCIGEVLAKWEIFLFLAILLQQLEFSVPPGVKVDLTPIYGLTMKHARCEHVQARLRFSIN

Data set [4] has as its target T3, Cytochrome P450 3A4 (Homo sapiens, UniProt P08684).
A further data set deals with Cytochrome P450 2C19 (Homo sapiens, UniProt P33261). Nature of the data set: Cytochrome panel assay with activity outcomes. Panel member name: p450-cyp2c19 Compounds with AC50 equal or less than 10 uM are considered active. Format: functional.
The target in data set [5] is T4, Short transient receptor potential channel 4 (Mus musculus, UniProt Q9QUQ5).
T4 sequence (Q9QUQ5 whole entry): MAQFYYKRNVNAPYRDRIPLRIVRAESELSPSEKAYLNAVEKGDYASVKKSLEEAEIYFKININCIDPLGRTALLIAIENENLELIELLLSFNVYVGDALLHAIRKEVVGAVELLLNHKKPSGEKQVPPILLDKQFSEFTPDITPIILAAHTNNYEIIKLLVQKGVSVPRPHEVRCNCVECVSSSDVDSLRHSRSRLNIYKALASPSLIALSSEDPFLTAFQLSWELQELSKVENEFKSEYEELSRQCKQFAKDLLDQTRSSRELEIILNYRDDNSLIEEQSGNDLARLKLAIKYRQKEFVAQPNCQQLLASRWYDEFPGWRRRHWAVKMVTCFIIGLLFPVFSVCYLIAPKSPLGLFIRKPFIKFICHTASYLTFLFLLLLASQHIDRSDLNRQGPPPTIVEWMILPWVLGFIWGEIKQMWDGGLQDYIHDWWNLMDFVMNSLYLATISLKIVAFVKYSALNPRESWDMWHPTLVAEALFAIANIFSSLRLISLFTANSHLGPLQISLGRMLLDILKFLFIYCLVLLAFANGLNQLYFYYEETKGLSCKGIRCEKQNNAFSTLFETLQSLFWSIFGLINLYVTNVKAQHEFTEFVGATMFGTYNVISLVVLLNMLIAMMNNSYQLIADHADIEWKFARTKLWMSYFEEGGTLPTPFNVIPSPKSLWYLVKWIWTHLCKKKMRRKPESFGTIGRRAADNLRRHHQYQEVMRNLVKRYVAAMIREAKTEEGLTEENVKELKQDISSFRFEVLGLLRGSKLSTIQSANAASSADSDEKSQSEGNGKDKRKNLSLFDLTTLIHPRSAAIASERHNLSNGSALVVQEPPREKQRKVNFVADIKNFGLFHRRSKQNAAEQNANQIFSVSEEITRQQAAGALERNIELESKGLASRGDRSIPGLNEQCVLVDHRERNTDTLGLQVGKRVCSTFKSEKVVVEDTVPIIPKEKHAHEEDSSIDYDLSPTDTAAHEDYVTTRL
The data set can be described thus: mouse TRPC4 channel inhibitors, dose response, cell-based, HEK293 TRPC4/mu-opioid, Fluo-4 calcium (AID 434942).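 Note: potency of inhibitors blocking the TRPC4 calcium response.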 Format: functional.

For data set [6], the target named is T3, Cytochrome P450 3A4. The source holds these as a separate data set.
A short description of data set [7]: cells. Format: functional, cell-based.
For data set [8], the target named is Luciferin 4-monooxygenase (Photinus pyralis, UniProt P08659). Nature of the data set: firefly luciferase enzyme inhibitors, dose response, biochemical, luminescence (AID 1891).
The target of data set [9] is Dual specificity tyrosine-phosphorylation-regulated kinase 1A (Rattus norvegicus, UniProt Q63470). Format: biochemical, Homo sapiens.
Data set [10] is described as follows: Luminescence Cell-Based Dose Confirmation HTS to Identify Inhibitors of Platelet Dense Granule Release. [Related pubchem assays: 1663 (Primary HTS), 1678 (Summary of Project)]. Format: functional.
Data set [11] deals with T5, Trace amine-associated receptor 1 (Homo sapiens, UniProt Q96RJ0).
T5 sequence (Q96RJ0 whole entry): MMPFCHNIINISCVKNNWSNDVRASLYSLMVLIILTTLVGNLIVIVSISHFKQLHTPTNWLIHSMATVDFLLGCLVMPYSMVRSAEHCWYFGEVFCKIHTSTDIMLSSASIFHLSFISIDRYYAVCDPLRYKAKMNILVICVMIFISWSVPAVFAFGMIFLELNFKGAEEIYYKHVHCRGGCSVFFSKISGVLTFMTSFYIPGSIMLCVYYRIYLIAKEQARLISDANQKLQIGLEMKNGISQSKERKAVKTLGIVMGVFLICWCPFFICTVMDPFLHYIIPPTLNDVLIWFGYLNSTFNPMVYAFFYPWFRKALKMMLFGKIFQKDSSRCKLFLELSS
The data set can be described thus: Counterscreen for agonists of the human trace amine associated receptor 1 (hTAAR1): Fluorescence-based cell-based high throughput dose response assay to identify hTAAR1 agonist that also desensitize TAAR1 receptor response. Format: functional.

Data set [12] can be described thus: cells. Format: functional, cell-based. This is another data set of the same source.
The target in data set [13] is T5, Trace amine-associated receptor 1. Nature of the data set: Fluorescence-based cell-based high throughput dose response assay to identify agonists of the human trace amine associated receptor 1 (TAAR1). Format: functional.
The target of data set [14] is 5-hydroxytryptamine receptor 5A (Homo sapiens, UniProt P47898). Nature of the data set: Counterscreen for agonists of OPRM1-OPRD1 heterodimerization: luminescence-based cell-based high throughput dose response assay to identify agonists of 5-hydroxytryptamine (serotonin) 5A receptor (HTR5A). [Related pubchem assays (depositor defined):AID504326, AID504355, AID504692, AID504904, AID504905]. Format: functional.

The target in data set [15] is Delta-type opioid receptor (Homo sapiens, UniProt P41143). Nature of the data set: Counterscreen for agonists of heterodimerization of the mu 1 (OPRM1) and delta 1 (OPRD1) opioid receptors: Luminescence-based cell-based high throughput dose response assay to identify agonists of OPRD1 homodimerization. [Related pubchem assays (depositor defined):AID504326, AID504355, AID504692, AID504904, AID504905]. Format: functional.

The target in a further data set is Mu-type opioid receptor (Homo sapiens, UniProt P35372). The data set can be described thus: Counterscreen for agonists of heterodimerization of the mu 1 (OPRM1) and delta 1 (OPRD1) opioid receptors: Luminescence-based cell-based high throughput dose response assay to identify agonists of OPRM1 homodimerization. Format: functional.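 Note: U2OS cells expressing OPRM1 and beta-arrestin as split beta-galactosidase partners.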
The target in data set [16] is T6, Polyadenylate-binding protein 1 (Homo sapiens, UniProt P11940). The data set can be described thus: PABP1 MLLE–PAM2 binding inhibitor potency, dose response, biochemical, fluorescence polarization, FITC-PAM2 peptide (AID 602259). Format: functional. To be noted: read-out: IC50_Mean.
Data set [17] is described as follows: MC4R antagonists, dose response, counter-screen for LGR2 antagonist project, cell-based, plate reader, cherry pick (AID 743444).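 Note: transfected HEK 293 cells stimulated with alpha-MSH peptide; potency of inhibitors of the alpha-MSH evoked signal.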 Format: functional.
Data set [18] can be described thus: LGR2 antagonists, dose response, cell-based, HEK293, CRE-luciferase reporter, cherry pick, set 2 (AID 743343).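 Note: transfected cells were stimulated with diluted bursicon conditioned medium after compound addition.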 Format: functional. On the technique in general: In a reporter assay the amount or activity of a reporter protein is the signal.
The target of data set [19] is T6, Polyadenylate-binding protein 1. Nature of the data set: PABP1 MLLE–PAM2 interaction inhibitors, dose response, miRNA deadenylation inhibitor project, biochemical, fluorescence polarization, Cy5-PAM2 peptide, secondary (AID 602260). Format: functional. The following applies: read-out: IC50_Mean. In general terms: In fluorescence polarisation assays a small probe gives low polarisation when free and higher when bound to something large.

Data set [20] can be described thus: HepG2 cell cytotoxicity, dose response, cytotoxicity control, plate reader, cherry-pick, antagonist series (AID 743416). Format: functional, cell-based.
The test system of another data set is HEK293. The data set can be described thus: inhibitors of LMP1-driven NF-kB reporter, dose response, cell-based, HEK293, luciferase, cherry-pick (AID 588343). Format: functional. To be noted: Homo sapiens.
Data set [21] deals with Escherichia coli. The data set can be described thus: microbe, parasite or virus in culture. This is another data set of the same source.
Data set [22] addresses T4, Short transient receptor potential channel 4. The data set can be described thus: mouse TRPC4 channel activators, dose response, cell-based, HEK293 TRPC4/mu-opioid, Fluo-4 calcium (AID 434937). Format: functional.

Calls of active or inactive are those of the source.

Chain of Cytochrome P450 2D6 (P10635 whole entry): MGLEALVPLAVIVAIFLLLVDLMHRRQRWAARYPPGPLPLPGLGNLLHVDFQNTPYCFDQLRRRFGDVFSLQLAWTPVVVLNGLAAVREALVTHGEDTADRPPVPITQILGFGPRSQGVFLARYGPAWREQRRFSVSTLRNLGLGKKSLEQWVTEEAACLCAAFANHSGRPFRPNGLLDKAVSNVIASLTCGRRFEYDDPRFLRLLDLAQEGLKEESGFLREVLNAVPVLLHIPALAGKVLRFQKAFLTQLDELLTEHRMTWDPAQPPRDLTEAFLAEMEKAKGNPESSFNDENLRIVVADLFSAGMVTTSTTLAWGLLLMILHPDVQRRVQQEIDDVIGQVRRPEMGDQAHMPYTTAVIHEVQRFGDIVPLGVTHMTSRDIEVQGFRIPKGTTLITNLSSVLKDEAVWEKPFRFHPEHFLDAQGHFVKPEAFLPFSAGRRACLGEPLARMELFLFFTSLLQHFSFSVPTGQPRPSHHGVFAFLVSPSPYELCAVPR
T3 sequence (P08684 whole entry): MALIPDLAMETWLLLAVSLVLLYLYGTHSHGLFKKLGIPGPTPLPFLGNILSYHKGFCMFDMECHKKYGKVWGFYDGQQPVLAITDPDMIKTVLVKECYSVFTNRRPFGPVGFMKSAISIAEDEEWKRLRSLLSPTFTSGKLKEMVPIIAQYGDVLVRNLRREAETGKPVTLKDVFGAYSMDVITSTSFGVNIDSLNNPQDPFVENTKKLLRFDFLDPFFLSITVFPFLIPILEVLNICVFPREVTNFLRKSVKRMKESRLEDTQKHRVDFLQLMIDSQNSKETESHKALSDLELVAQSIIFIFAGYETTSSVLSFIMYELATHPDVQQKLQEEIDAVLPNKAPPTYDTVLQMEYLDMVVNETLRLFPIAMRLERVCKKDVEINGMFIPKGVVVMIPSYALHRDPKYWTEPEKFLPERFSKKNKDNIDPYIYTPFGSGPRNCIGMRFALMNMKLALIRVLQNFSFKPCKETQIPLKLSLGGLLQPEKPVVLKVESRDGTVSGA
T6 sequence (P11940 whole entry): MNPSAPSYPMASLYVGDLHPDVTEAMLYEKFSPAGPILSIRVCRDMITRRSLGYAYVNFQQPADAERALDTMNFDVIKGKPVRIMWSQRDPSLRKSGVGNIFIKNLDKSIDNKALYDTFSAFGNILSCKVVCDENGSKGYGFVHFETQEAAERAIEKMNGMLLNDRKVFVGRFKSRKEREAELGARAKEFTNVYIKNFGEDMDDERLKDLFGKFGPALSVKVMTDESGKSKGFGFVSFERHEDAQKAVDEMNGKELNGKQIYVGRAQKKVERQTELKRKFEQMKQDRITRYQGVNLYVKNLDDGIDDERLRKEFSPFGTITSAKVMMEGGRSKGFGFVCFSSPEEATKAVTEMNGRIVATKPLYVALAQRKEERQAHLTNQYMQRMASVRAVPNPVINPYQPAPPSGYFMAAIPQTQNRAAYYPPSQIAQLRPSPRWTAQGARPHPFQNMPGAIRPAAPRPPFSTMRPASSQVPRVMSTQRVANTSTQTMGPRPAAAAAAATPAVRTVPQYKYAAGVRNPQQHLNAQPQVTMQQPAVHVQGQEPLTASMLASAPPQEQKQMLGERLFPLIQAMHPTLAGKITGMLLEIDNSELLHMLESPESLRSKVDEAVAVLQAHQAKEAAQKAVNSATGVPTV
Chain of Luciferin 4-monooxygenase (P08659 whole entry): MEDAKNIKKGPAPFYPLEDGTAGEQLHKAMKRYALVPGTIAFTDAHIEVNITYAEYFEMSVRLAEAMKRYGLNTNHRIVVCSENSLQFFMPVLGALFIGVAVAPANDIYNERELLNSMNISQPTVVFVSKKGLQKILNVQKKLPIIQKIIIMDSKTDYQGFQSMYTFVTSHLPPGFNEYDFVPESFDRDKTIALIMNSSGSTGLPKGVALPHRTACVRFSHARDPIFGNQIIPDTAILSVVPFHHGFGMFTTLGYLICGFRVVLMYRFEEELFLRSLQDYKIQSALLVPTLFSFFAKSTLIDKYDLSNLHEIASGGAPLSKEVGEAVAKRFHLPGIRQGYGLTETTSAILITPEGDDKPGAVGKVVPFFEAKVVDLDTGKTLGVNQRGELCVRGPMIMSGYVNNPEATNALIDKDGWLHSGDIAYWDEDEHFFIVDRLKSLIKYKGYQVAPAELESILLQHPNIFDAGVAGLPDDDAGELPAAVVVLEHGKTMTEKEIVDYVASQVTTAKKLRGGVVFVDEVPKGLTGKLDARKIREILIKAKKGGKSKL
Chain of Cytochrome P450 2C19 (P33261 whole entry): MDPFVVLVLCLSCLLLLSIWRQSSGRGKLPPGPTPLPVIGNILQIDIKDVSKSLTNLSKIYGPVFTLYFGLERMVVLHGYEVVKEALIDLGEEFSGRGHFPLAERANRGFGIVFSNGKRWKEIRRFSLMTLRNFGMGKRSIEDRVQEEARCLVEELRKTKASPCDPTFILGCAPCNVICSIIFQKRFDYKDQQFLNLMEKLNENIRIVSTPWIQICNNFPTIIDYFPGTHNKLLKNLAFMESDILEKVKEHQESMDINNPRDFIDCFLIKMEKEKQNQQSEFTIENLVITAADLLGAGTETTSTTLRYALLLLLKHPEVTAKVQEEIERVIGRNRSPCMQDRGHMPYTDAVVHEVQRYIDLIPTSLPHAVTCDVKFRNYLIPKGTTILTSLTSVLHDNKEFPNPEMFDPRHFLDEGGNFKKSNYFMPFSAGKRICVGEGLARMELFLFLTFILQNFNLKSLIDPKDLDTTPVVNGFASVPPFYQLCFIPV
Chain of Mu-type opioid receptor (P35372 whole entry): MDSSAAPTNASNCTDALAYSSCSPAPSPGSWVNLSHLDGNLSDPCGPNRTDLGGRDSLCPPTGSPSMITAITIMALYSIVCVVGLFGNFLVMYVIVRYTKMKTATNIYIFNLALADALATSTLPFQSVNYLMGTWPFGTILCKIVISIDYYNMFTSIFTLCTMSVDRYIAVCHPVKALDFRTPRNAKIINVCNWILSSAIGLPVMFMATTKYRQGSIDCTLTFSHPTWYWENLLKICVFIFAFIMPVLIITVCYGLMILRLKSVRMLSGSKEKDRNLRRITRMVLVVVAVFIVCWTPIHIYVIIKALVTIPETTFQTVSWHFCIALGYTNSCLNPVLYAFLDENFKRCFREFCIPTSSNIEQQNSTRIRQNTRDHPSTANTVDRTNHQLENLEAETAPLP
Chain of Delta-type opioid receptor (P41143 whole entry): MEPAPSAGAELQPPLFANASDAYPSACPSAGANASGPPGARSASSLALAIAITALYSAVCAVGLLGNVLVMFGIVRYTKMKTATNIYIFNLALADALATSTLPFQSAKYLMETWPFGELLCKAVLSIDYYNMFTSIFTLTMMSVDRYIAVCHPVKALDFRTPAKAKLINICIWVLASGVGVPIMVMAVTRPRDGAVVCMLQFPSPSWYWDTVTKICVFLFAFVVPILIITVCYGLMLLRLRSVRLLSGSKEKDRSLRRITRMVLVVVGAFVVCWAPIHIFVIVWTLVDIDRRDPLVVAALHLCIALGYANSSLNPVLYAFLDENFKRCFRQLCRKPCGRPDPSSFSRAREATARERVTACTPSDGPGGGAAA
Chain of 5-hydroxytryptamine receptor 5A (P47898 whole entry): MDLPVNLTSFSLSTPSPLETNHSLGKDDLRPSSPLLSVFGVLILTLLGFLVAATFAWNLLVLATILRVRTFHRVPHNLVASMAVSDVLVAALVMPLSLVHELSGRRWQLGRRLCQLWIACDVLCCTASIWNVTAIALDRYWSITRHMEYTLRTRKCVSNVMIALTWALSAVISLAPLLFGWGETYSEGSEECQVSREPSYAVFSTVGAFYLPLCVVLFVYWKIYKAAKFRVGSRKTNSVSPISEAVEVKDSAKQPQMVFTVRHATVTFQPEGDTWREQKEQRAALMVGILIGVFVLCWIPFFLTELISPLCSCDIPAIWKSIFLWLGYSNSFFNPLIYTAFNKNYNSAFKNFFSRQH
Chain of Cytochrome P450 2C9 (P11712 whole entry): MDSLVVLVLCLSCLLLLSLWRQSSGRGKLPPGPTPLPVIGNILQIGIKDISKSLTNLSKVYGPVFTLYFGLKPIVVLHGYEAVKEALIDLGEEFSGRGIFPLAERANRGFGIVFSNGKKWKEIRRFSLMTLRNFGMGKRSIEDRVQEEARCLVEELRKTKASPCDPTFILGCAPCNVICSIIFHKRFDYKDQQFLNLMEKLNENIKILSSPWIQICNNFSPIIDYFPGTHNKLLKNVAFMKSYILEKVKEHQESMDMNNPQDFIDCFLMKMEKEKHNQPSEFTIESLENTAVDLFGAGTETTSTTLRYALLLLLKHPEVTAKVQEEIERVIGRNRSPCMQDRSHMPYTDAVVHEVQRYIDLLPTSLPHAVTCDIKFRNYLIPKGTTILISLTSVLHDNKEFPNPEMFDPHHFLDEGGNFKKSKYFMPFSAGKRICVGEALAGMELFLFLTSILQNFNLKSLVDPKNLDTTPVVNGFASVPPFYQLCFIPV

For `COc1ccc(NC(=O)CN(C)S(=O)(=O)c2ccccc2)c([N+](=O)[O-])c1`, the EC50 in data set [1] and in [2] was > 99 µM (inactive) each time.

For the compound `O=C(N/N=C/C1=C(N2CCOCC2)C(=C\c2ccccc2)/CC1)Nc1ccccc1`, the AC50 in the data set on Escherichia coli [3] is 67.6 µM (active).

With `N[C@@H](CCC(=O)O)C(=O)O` [GLUTAMIC ACID], the AC50 entry at Cytochrome P450 2C9 was “inactive”; at Cytochrome P450 2D6, “inactive”; on Cytochrome P450 1A2 it was 39.8 µM (inconclusive); at Cytochrome P450 3A4 [4], “inactive”; on Cytochrome P450 2C19, “inactive”.

Turning to `N#Cc1cccc(-c2nc3cnc(Oc4cccc(Cl)c4)nc3n(C3CC3)c2=O)c1`, the AC50 result on Cytochrome P450 3A4 [4] was “inconclusive”.

As to `c1ccc(NC(=NCc2ccco2)c2ccccc2)cc1`, in the data set with Escherichia coli [3], the AC50 is 47.6 µM (active). For the same compound, the EC50 in data set [5] is 18.8 µM (active).

Regarding `CC(C)=NOC[C@@H](O)COCc1ccco1`, on Cytochrome P450 2D6, the AC50 entry is recorded as “inconclusive”.

With `CO[C@@H]1COC(=O)[C@@H](C)NC(=O)C/C=C\[C@@H](C)[C@H](NS(=O)(=O)c2ccc(C)cc2)COC(=O)[C@H](C)NC(=O)C/C=C\[C@H]1C`, the figures for the AC50 entry at Cytochrome P450 2D6 and at Cytochrome P450 3A4 [6] were “inconclusive” and 5.01 µM (inconclusive), respectively.

Regarding `Nc1nc(Nc2cccc(F)c2)nc2ccccc12`, the EC50 in “cells [7]” was > 29.9 µM (inactive); in data set [8] it was 0.853 µM (active); in data set [10] it was 7.18 µM (active); in [13] it was 0.364 µM (active). For the same compound, the AC50 in data set [9] is 4.73 µM (active). For the same compound, the IC50 in data set [11] is 1.65 µM (active); in “cells [12]” it was > 29.9 µM (inactive).

As for `COc1cccc(-c2cc(C(=O)N3CCc4ccccc4C3)[nH]n2)c1`, the EC50 in [1] and in data set [2] was > 99 µM (inactive) each time.

In the case of `OC(CNCCC(c1ccccc1)c1ccccc1)COc1ccccc1` (stereo unspecified), the EC50 (in data set [14]; in data set [15]; at Mu-type opioid receptor) was > 92.5 µM (inactive) throughout.

Take `O=C(CN1C(=O)c2ccccc2S1(=O)=O)Nc1ncc(Cl)cc1Cl`: the IC50 is 27.3 µM (inactive) in data set [16] and > 66 µM (inactive) in data set [19]. The AC50 in [17] was 9.06 µM (active); in [18] it was 8.67 µM (active); in data set [20], > 52 µM (inactive); with HEK293 it was 3.85 µM (active).

For the compound `CCOC(=O)N1CCC(NC(=O)c2oc3c(c2C)-c2n[nH]cc2CC3)CC1`, the values for the AC50 in the data set with Escherichia coli [3] and in the data set with Escherichia coli [21] were 67 µM (active) and 18.4 µM (active), respectively.

As for `O=[N+]([O-])c1ccc(CSc2ncnc3c2ncn3[C@@H]2O[C@@H](CO)[C@@H](O)[C@H]2O)cc1`, at Cytochrome P450 3A4 [4], the AC50 entry was “inconclusive”.

Take `O=c1oc2c(-c3cccc(F)c3)cc(O)cc2s1`: the AC50 in [9] was 3.74 µM (active).

In the case of `Clc1ccc(OCCNCCc2ccccc2)cc1`, the EC50 in the data set “cells [7]” is 21.9 µM (inactive); in [13] it was 3.81 µM (active); in data set [22], 4.73 µM (active). The IC50 in data set [11] was 9.59 µM (active); in “cells [12]”, > 29.9 µM (inactive).

For orientation: EC50 means the midpoint of the concentration-response curve. For orientation: AC50 means the concentration giving half of the maximal activity seen.

The values above are taken from ChEMBL document CHEMBL1201862, “PubChem BioAssay data set” (2004).
